The record followed here is patent publication US20110166066A1, “CATESTATIN (CST) AND ITS VARIANTS FOR TREATMENT OF CARDIOVASCULAR AND METABOLIC DISORDERS” (priority 2008, published 2011).

No end group written: not given here.

Assay [1] concerns Wild-type and CgA-KO mice. Nature of the assay: Heart rate variability (EKG) in sedated mice. The class given is in vivo. The protocol:
Animals. Six Wild-type and seven CgA-KO mice were used in this study (see example 1 for the details).
Mice were sedated by an intraperitoneal injection of a 1 μl solution per gm body weight, containing Ketamine (100 mg/ml)+Xylazine (20 mg/ml) and Acepromazine (10 mg/ml). Mice were gently strapped onto the surgical table in a fixed supine position with silk tape. Body temperature was continuously monitored on an analog thermometer, model 44TA (YSI, Ohio) using a rectal probe, and maintained between 36.5 and 38.5° C. throughout the experiment using a controlled heating box. The analog output signal fed into the chart recorder (AD Instruments, Colorado) and suitably amplified. The adequacy of sedation was regularly verified by absence of vibrissae twitching and withdrawal reflex to a noxious toe-pinch and was supplemented intraperitoneally as needed. Animals breathed ambient air spontaneously throughout the experimental run. Investigational agent, a nicotinic cholinergic receptor antagonist (8), CST was dissolved in distilled water and injected intraperitoneally at a volume of 70 μl from a 1 mM working solution.
EKG electrodes were attached to all four limbs (incl. reference electrode) via 30G stainless steel hypodermic needles (Popper & Sons, New York) so as to record standard bipolar Einthoven derivation (lead I, II and III) EKG signals. The EKG signals were bandpass-filtered between 0.1 and 3 kHz with a notch filter set at 60 Hz, and sampled at 2 kHz. The voltage output fed into a data acquisition system (PowerLab-8, AD Instruments) for eventual off-line measurements and analysis by chart and scope (Labchart 6) software. Heart rate and rhythm were also monitored continuously on an oscilloscope (Tektronix 5113, Oregon) throughout the experiment.
EKG traces were edited using the Chart® software package. High frequency noise from the EKG was removed using a 45 Hz low-pass filter to enable detection of the R-waves, whenever appropriate. A threshold electrical potential value was set for each trace and the post-threshold maximum was taken as the R-wave. Each trace was visually inspected for any undetected R-waves and these were manually inserted, while incorrectly detected R-waves or non-normal beats such as extrasystoles were deleted. Time and frequency domain analysis of HRV was performed using fast Fourier-transformation with a Hanning window. Spectral power was calculated on 50% overlapped blocks on sequences of 1024 points (beats). Time-domain parameters recorded or calculated included: mean R-R interval (in ms) [i.e., NN interval, i.e., normal-to-normal intervals]; standard deviation of all normal R-R interval (SDNN, in ms), reflecting total autonomic variability; square root mean of squared differences between adjacent normal R-R intervals (RMSSD), an index for short-term variations in inter-beat intervals, primarily of parasympathetic nature; and percentage of normal consecutive inter-beat intervals differing by >7 ms (NN7%), reflecting cardiac parasympathetic tone, were calculated directly from the sequence of interval times. NN7 is a murine-adjusted value based on PNN50 determined for humans (32). The mean HR was calculated as the mean sequence of reciprocals of the interval times. For non-linear measurements on the return map of R-R intervals (Lorenz plot), the images acquired by the chart software were imported into Image J (National Institutes of Health, Bethesda) for evaluating point dispersion of S1 and S2 (see below). The width and length of the dispersion of data in Lorenz plots reflects the level of short- and long-term beat-to-beat variability, respectively. The different frequency domain measures of HRV were computed using cut-off frequencies for power in the very low frequency (VLF), low-frequency range (LF) and high-frequency range (HF) based on human studies multiplied by a factor of ten for HR adjustment (the approximate ratio between murine and human HR) (33). […]

Assay [2] concerns WT and Chga knockout (KO) mice. Nature of the assay: Plasma catecholamine assay. It is filed as in vivo. The note with it: CST 40 μg/g bw ip for 30 min. Here is the method:
Catecholamine assay following immobilization stress: Mice were anesthetized by inhalation of “Isoflurane, USP” and blood was collected from the left ventricle in potassium EDTA tubes. […] Plasma catecholamine was measured by HPLC connected to an electrochemical detector (Waters 600E Multisolvent Delivery system and Waters 2465 Electrochemical Detector, MA) in a group of restraint mice (non-telemetered). Separation was performed on an Atlantis dC18 column (2.1×150 mm, 3 μm) from Waters. The mobile phase (0.15 ml/min) consisted of phosphate-citrate buffer and 2.2% N, N-Dimethylacetamide and acetonitrile at 95:5 (V/V). An internal standard 3,4-Dihydroxybenzylamine (DHBA, 1 ng) and an antioxidant sodium meta-bisulfite (final concentrations of 0.125 mM) were added to 0.25 ml of plasma. Following the addition of 15 mg of alumina (Aluminium oxide, Activity Grade: Super I, Type WA-4, Sigma-Aldrich, PA), the pH of the solution was raised to pH 8.6 by adding Tris buffer (0.96 M Tris, 50 mM EDTA, pH 8.69). Following a 30 min incubation and centrifugation (5000 rpm, 5 min), the supernatant was discarded and the beads were washed with water. The catecholamine was eluted with […] of 0.1 N HCl supplemented with 0.1 mM sodium meta-bisulfite. The data were analyzed using Empower software. Catecholamine levels were normalized with the recovery of internal standard.

As for “SSMKLSFRARAYGFRGPGPQL [WT-CST, catestatin]”, the “Increased baseline heart rate” value in assay [1] (CgA KO mice, parenteral CST) is “rescued”. Besides, in assay [1] (KO mice), the “HRV VLF power” value was 2.899±1.05 ln ms^2 and the “Time-domain parameters of HRV (SDNN, NN7%, RMSSD)” value is “reversed”. Also, the “HRV VLF power” value in assay [1] (WT mice) stood at 2.468±0.69 ln ms^2. In addition, in assay [1] (mouse, in vivo), the “Short-term and long-term variability of HRV (Lorenz analysis)” value is listed as “marked improvements”; the Spectral peak positions entry is given as “not visibly altered”. Moreover, in assay [2], the “Basal plasma norepinephrine and epinephrine” value was “returned to WT level”.
